Assays:
rats [1] = assay: Interaction with amphetamine; format: in vivo; conditions: rat, 8 mg/kg et 32 mg/kg i.p., amphétamine 2 mg/kg i.p.
Method: L'amphétamine (2 mg/kg) est injectée par voie intrapéritonéale à des lots de 12 rats, une demi-heure après l'administration de CRL 40914.
(§1) On a résumé ci-après les résultats des essais qui ont été entrepris chez l'animal avec le CRL 40915, les modalités opératoires étant celles données ci-dessus pour le CR L 40914.

souris [2] = assay: Motility reduced by habituation to the enclosure; format: in vivo; conditions: 64 mg/kg i.p.
Method: Après 18 h de séjour dans les actimètres, les souris (6 par dose, 12 témoins) reçoivent le CRL 40914. Elles sont aussitôt replacées dans leurs enceintes respectives et, une demi-heure plus tard, on enregistre leur motilité pendant 30 min.
as §1

souris [3] = assay: Interaction with yohimbine, spontaneous motility; format: in vivo; conditions: yohimbine 0,5 mg/kg i.p.
Method: Des lots de 12 souris reçoivent la yohimbine (0,5 mg/kg i.p.) et le CRL 40914 respectivement 60 et 30 min avant d'être placées en actimètre où leur motilité est enregistrée pendant une demi-heure.

rats [4] = assay: Interaction with apomorphine, rat; format: in vivo; conditions: apomorphine 0,5 mg/kg s.c.
Method: Le CRL 40914 est administré aux rats une demi-heure avant l'injection sous-cutanée de 0,5 mg/kg d'apomorphine.
as §1

souris [5] = assay: Four plates test, traction and electroshock; format: in vivo
Source text: Le test est pratiqué sur des lots de 10 souris, une demi-heure après l'administration de CRL 40914.
as §1

souris [6] = assay: Interaction with apomorphine, mouse; format: in vivo; conditions: 16 mg/kg et 64 mg/kg i.p., une demi-heure avant apomorphine s.c. 1 ou 16 mg/kg
Method: Des lots de 6 souris reçoivent le CRL 40914 une demi-heure avant l'injection sous-cutanée d'apomorphine, à la dose de 1 mg/kg ou 16 mg/kg.
as §1

homme = assay: Clinical use by the oral route; format: in vivo; conditions: voie orale, 2 à 3 comprimés ou gélules (10 à 20 mg chacun) par jour
souris [7] = assay: Interaction with yohimbine, temperature; format: in vivo; conditions: 1 mg/kg et 16 mg/kg de CRL 40914, yohimbine 0,5 mg/kg i.p. une demi-heure avant
Method: Des lots de 12 souris reçoivent une injection intrapéritonéale de 0,5 mg/kg de yohimbine, une demi-heure avant l'administration de CRL 40914.

souris mâle = assay: Acute toxicity by the i.p. route (DL-0, DL-50); format: in vivo; conditions: voie i.p.
Method: (§2) On a résumé ci-après les résultats des essais qui ont été entrepris chez l'animal avec le CRL 40914, ce produit étant administré, sauf indications contraires, en solution dans l'eau (à pH 5) par voie intrapéritonéale sous un volume de 20 ml/kg chez la souris mâle et de 5 ml/kg chez le rat mâle.
Chez la souris mâle, la DL-0 (dose maximale non mortelle) par voie i.p. est supérieure à 128 mg/kg.
as §1
Chez la souris mâle, la DL-0 (dose maximale non mortelle) par voie i.p. est supérieure à 256 mg/kg, et la DL-50 par voie i.p. est de l'ordre de 500 mg/kg environ.

[8] = tested on: rats génétiquement hypertendus; assay: Action on the cardiovascular system; format: in vivo, rat; conditions: 20 mg/kg par voie buccale
Method: Six rats génétiquement hypertendus à cathéter artériel fémoral implanté reçoivent le CRL 40914 à la dose de 20 mg/kg par voie buccale.

souris [9] = assay: Asphyxic anoxia (gallamine triethiodide); format: in vivo
Method: Des lots de 10 souris reçoivent le CRL 40914 une demi-heure avant l'administration intrapéritonéale de 32 mg/kg de triiodoéthylate de gallamine (agent curarisant de référence).
as §1

souris [10] = assay: Interaction with barbital; format: in vivo; conditions: barbital sodique 220 mg/kg i.p.
Method: Des lots de 10 souris reçoivent le CRL 40914 une demi-heure avant l'injection intrapéritonéale de 220 mg/kg de barbital sodique.

souris [11] = assay: Motility reduced by hypoxic aggression; format: in vivo; conditions: i.p., anoxie hypobare aiguë
Method: Une demi-heure après avoir reçu le CRL 40914, les souris (10 par dose, 20 témoins) sont soumises à une anoxie hypobare aiguë [dépression de 600 mm Hg (soit environ 8 x10^4 pascals) en 90 s puis détente de 45 s] puis elles sont placées en actimètre où leur motilité est enregistrée pendant 10min.
as §1

rat = assay: Global behaviour and reactivity, rat; format: in vivo
Method: as §2
Des lots de 3 animaux sont observés avant, puis 15 min, 30 min, 1 h, 2 h, 3 h et 24 h après l'administration de CRL 40914. On observe ce qui suit:
as §1

souris [12] = assay: Action on spontaneous motility (actimeter); format: in vivo
Method: Une demi-heure après avoir reçu le CRL 40914, des souris sont placées en actimètre où leur motilité est enregistrée pendant 30 min.
as §1

souris [13] = assay: Interaction with reserpine; format: in vivo; conditions: 4 mg/kg mais surtout 16 mg/kg et 64 mg/kg i.p., 4 h après réserpine 2,5 mg/kg i.p.
Method: Quatre heures après l'injection intrapéritonéale de 2,5 mg/kg de réserpine, des lots de 6 souris reçoivent le CRL 40914.
as §1

Compound: CCN1CCOC(c2ccccc2)C1 (centres unmarked) [CRL 40914, Chlorhydratede 2-phényl-4-éthyl-morpholine]
- stéréotypies amphétaminiques (rats [1]): diminue nettement l'intensité des téréotypies amphétaminiques
- activité motrice chez la souris habituée à son enceinte (souris [2]): reprise très nette de l'activité motrice
- hypomotilité produite par le CRL 40914 après yohimbine (souris [3]; CRL 40914 1 mg/kg): s'oppose à l'hypomotilité
- hypomotilité produite par le CRL 40914 après yohimbine (souris [3]; CRL 40914 16 mg/kg): ne modifie pas celle provoquée par 16 mg/kg
- stéréotypies induites par l'apomorphine (rats [4]; rat, 0,5 mg/kg, 2 mg/kg et 8 mg/kg i.p.): semble diminuer modérément l'intensité des téréotypies induites par l'apomorphine
- stéréotypies induites par l'apomorphine (rats [4]; rat, 32 mg/kg i.p.): potentialisation discrète des stéréotypies
- effets létaux de l'électrochoc (souris [5]; 64 mg/kg i.p.): aggrave les effets létaux de l'électrochoc
- déficit moteur (traction) (souris [5]; i.p.): ne provoque pas de déficit moteur majeur
- nombre de passages punis (test des quatre plaques) (souris [5]; i.p., faible dose / forte dose): à faible dose une diminution, et à forte dose une augmentation du nombre de passages punis
- action hypothermisante de l'apomorphine (souris [6]): s'oppose à l'action hypothermisante de l'apomorphine
- indices de verticalisation et de stéréotypies (apomorphine) (souris [6]): semble augmenter les indices de verticalisation et de stéréotypies
- résultats cliniques (agent antidépresseur du SNC) (homme): d'excellents résultats
- hypothermie induite par le CRL 40914 après yohimbine (souris [7]): empêche l'apparition de l'hypothermie
- DL-0 (dose maximale non mortelle) (souris mâle): > 128 mg/kg
- effet sur la pression artérielle [8]: modérément hypotenseur
- temps de l'effet maximal sur la pression artérielle [8]: 7 h
- variation de la pression artérielle ([8]; 7 h après): -18%
- pression artérielle (effet maximal) ([8]; 7 h après, valeur initiale 165): 135 mm Hg
- pression artérielle et fréquence cardiaque après 24 h ([8]; 24 h): sont revenues à leur valeur témoin
- fréquence cardiaque (minimum) ([8]; après 1,5 h, valeur initiale 350): 270 battements/minute
- apparition des convulsions et de la mort (anoxie asphyxique) (souris [9]; 1 mg/kg, 4 mg/kg et 16 mg/kg i.p., triiodoéthylate de gallamine 32 mg/kg i.p.): retard d'apparition des convulsions et, à un degré moindre, de la mort
- apparition des convulsions et de la mort (anoxie asphyxique) (souris [9]; dose plus élevée (above 16 mg/kg) i.p.): cet effet disparaît
- durée du sommeil induit par le barbital (souris [10]; 4 mg/kg et 16 mg/kg i.p.): semble prolonger modérément la durée du sommeil induit par le barbital
- durée du sommeil induit par le barbital (souris [10]; 64 mg/kg i.p.): antagonisme net
- activité motrice après agression hypoxique (souris [11]): modifications de l'activité motrice qui reflètent son action sur la motilité spontanée
- mydriase (rat; rat, 0,5 mg/kg i.p.): mydriase pendant 1 à 2 h
- mydriase (rat; rat, 2 mg/kg i.p.): mydriase pendant 1 à 2 h
- sédation (rat; rat, 2 mg/kg i.p.): sédation pendant 1 h
- mydriase (rat; rat, 8 mg/kg i.p.): mydriase pendant 2 h
- piloérection (rat; rat, 8 mg/kg i.p.): piloérection pendant 1 à 2 h
- sédation (rat; rat, 8 mg/kg i.p.): sédation pendant 2 h avec diminution de la réactivité au toucher mais augmentation de la réaction de peur
- mydriase (rat; rat, 32 mg/kg i.p.): mydriase pendant plus de 3 h
- piloérection, salivation et lacrymation (rat; rat, 32 mg/kg i.p.): piloérection (pendant 3 h), salivation (pendant 1 h) et lacrymation (pendant 1 h)
- réaction de peur (rat; rat, 32 mg/kg i.p.): augmentation de la réaction de peur pendant 3 h
- sédation (rat; rat, 32 mg/kg i.p.): sédation pendant 3 h avec diminution de la réactivité au toucher et du tonus musculaire
- activité motrice spontanée (souris [12]; 64 mg/kg i.p.): hyperactivité nette
- activité motrice spontanée (souris [12]; dès 0,125 mg/kg i.p., maximum entre 0,5 mg/kg et 16 mg/kg): diminution de l'activité motrice spontanée
- hypothermie et ptosis réserpiniques (souris [13]): s'oppose à l'hypothermie et au ptosis réserpinique

Reference: patent EP0080940B1, “Derivatives of 2-phenyl-morpholine and medical compositions” (LABORATOIRE L. LAFON Société anonyme dite:, priority 1981, dated 1983)
